# Assay results as given in paper PMC6127930 (2018).
# System: oxytetracycline binding aptamer (OBA) (DNA, aptamer) CGTACGGAATTCGCTAGCACGTTGACGCTGGTGCCCGGTTGTGGTGCGAGTGTTGTGTGGATCCGAGCTCCACGTG
# Assay: magnetic capture, UV-Vis of unbound at 368 nm
# Settings: 100 mM NaCl, 5 mM KCl, 2 mM MgCl2, 1 mM CaCl2, 20 mM Tris-HCl pH 7.6, room temperature, 2 h
smiles,measurement,setting,value
CN(C)[C@@H]1C(=O)C(C(N)=O)=C(O)[C@@]2(O)C(=O)C3=C(O)c4c(O)cccc4[C@@](C)(O)[C@H]3[C@H](O)[C@@H]12,binding,"5 µM compound, 85 ± 2.8% captured",yes
COc1ccc2cc([C@H](C)C(=O)O)ccc2c1,binding,"tested at 5 µM, 9.0 ± 1.3% non-specifically adsorbed",no
O=C(O)Cc1ccccc1Nc1c(Cl)cccc1Cl,binding,"tested at 5 µM, 8.7 ± 3.7% non-specifically adsorbed",no
